# According to patent US20250009748A1 (NAVIRE PHARMA, INC., priority 2021, published 2025):
# Entries after “also recorded” stand apart in the source; their conditions may differ.
# What was measured:
# [1] = system: NCI-H358 subcutaneous tumors (human NSCLC, KRAS G12C); assay: NCI-H358 subcutaneous xenograft efficacy study, formula (10b) and Compound A (Example 1); format: in vivo, NOD/SCID mice; conditions: for Day 21 TGI: n = 8
# Text: Cell lines. The NCI-H358 cell line was purchased from ATCC. It is a human NSCLC cell line, harboring heterozygous mutation of KRAS G12C.
# Test animals. Female NOD/SCID mice (Beijing Anikeeper Biotech Co., Ltd) were utilized in this experiment. Animals were 6˜8 weeks of age at the time of xenograft implantation. The protocol and any amendment(s) or procedures involving the care and use of animals in this study was reviewed and approved by the Institutional Animal Care and Use Committee (IACUC) of Crown Bioscience Ltd. prior to execution. During the study, the care and use of animals was conducted in accordance with the regulations of the Association for Assessment and Accreditation of Laboratory Animal Care (AAALAC).
# In vivo modeling, treatment and data analysis.
# When the average tumor volume reached 250 mm^3, mice were randomized into groups of 8 based on both tumor volume and body weight.
# Tumor volume was measured twice a week.
# Day 0 was the day before treatment started.
# Ti and Ci are the mean tumor volumes of the treatment and vehicle groups on the measurement day, respectively; C0 is the mean tumor volume of the vehicle group on day 0.
# Tumor volume was monitored bi-weekly by caliper and body weights were recorded. Data presented in FIGS. 1A-1E represent mean±SEM, and N=8 mice/group for FIGS. 1B-1E and N=10 mice/group for FIG. 1A.
# [2] = system: NCI-H2122 subcutaneous cell line-derived tumors (NSCLC, KRAS G12C, KEAP1, STK11); assay: NCI-H2122 subcutaneous cell line-derived xenograft, formula (10b) and sotorasib (Example 2); format: in vivo, BALB/c nude mice; conditions: Day 21, n = 10; for TGI: Formula (10b) 100 mg/kg QD PO
# Text: (§1) Tumor Cell Line Culture. […] Passage 9 NCI-H358 cells were thawed and expanded, and passage 13 cells were harvested for inoculations. […] Passage 6 NCI-H2122 cells were thawed and expanded, and passage 14 cells were harvested for inoculations.
# (§2) Animal Inoculations and Randomization. All experiments were reviewed and approved by the Crown Bioscience, Inc., Institutional Animal Care and Use Committee (IACUC) prior to execution and performed in accordance with the regulations of the Association for Assessment and Accreditation of Laboratory Animal Care (AAALAC). […] Mice were randomized into four groups (10 mice/group) by tumor volume (size mm^3) 13 days post cell inoculation when the mean tumor volume was 160 mm^3. […] Mice were randomized into four groups (10 mice/group) by tumor volume (size mm^3) 9 days post cell inoculation when the mean tumor volume was 180 mm^3.
# (§3) Tumor and Body Weight Measurements. […] Dosing as well as tumor and body weight measurements were conducted in a Laminar flow cabinet.
# (§4) Statistical analyses. Statistical analyses were performed with GraphPad Prism software (version 9). For statistical analyses comparing the vehicle group to all other groups, two-way repeated-measures analysis of variance (ANOVA) followed by post hoc Tukey's multiple comparisons test of the means was applied over the indicated number of days. For statistical analyses comparing the monotherapy and combination groups, two-way repeated-measures ANOVA was performed between each monotherapy group mean and combination group mean over the number of indicated days. A p value of less than 0.05 was considered statistically significant.
# [3] = Tolerability (body weight, mouse loss) in NCI-H358 xenograft study (Example 1); conditions: for Mean body weight change: Day 29, n = 10; for Mouse loss and observations: n = 8 mice/group
# Experimental: Dosing started ˜2 weeks post the subcutaneous implantation of the tumor cells. […] Tumor volume was measured twice a week. The body weight and tumor volume were captured in the StudyDirector software version 3.1.399.19 (StudyLog).
# Data were analyzed using Microsoft Excel and GraphPad Prism 8.0. Day 0 was the day before treatment started.
# BWi and BW0 are the body weight of an individual mouse on measurement day I and on day 0, respectively.
# [4] = Tolerability / body weight in NCI-H2122 study (Example 2)
# Experimental: Body weights (BW) were also recorded twice weekly. […] Mean body weight changes (±SEM) were recorded for group.
# Experimental Endpoints. Animal health was monitored at least twice weekly through behavioral observations and weight checks. After tumor inoculation, the animals were checked daily for morbidity and mortality. During routine monitoring, the animals were checked for any effects of tumor growth and treatments on behavior such as mobility, food and water consumption, body weight gain/loss, eye/hair matting, and any other abnormalities.
# Study endpoint was defined when animals reached one of the following criteria for euthanasia: ≥20% body weight loss at any time versus day 1, ≥15% body weight loss for 72 hours versus day 1, individual tumor volume of ≥3000 mm^3, or all mice in each group were euthanized when the mean tumor volume reached ≥2000 mm^3.
# [5] = system: NCI-H358 subcutaneous cell line-derived tumors (NSCLC, KRAS G12C); assay: NCI-H358 subcutaneous cell line-derived xenograft, formula (10b) and sotorasib (Example 2); format: in vivo, NOD/SCID mice; conditions: Day 29, n = 10; for Mean Tumor REG: Formula (10b) 100 mg/kg QD PO
# Text: as §1, §2, §3, §4
# Female NOD/SCID mice were implanted subcutaneously with NSCLC NCI-H358 tumor cells. […] Mouse tumor volumes were measured twice weekly until day 34 and results are shown through day 29.
# [6] = LC-MS/MS plasma concentration of formula (10b) and Compound A at end of efficacy study (Example 1); format: in vivo, NOD/SCID mice; conditions: for concentration at 8 h / concentration at 2 h: NOD/SCID, mouse, plasma, oral; for concentration at 2 h: Compound A Plasma concentration
# Text: Blood collection for pharmacokinetic analysis. Blood from live animals for pharmacokinetic (PK) analyses was obtained via the retro-orbital sinus. The mouse was grasped firmly behind the ears and rotated slightly to one side so that a disposable, sterile microcapillary tube could be inserted behind the eyeball and gently rotated to break the sinus cavity. Blood flowed through the capillary tube, directly into a K2 EDTA tube (Jiangsu KangJian Medical Apparatus Corporation #044022) to a volume of 100 μL. Blood in the tube was inverted several times to distribute the EDTA evenly. To separate plasma, tubes were centrifuged in a bench top centrifuge (Eppendorf, Model 5424R) for 5 minutes at 8000 rpm without braking. The supernatant (plasma) was carefully transferred to a microcentrifuge tube and placed onto dry ice prior to storage at −80° C.
# For plasma sample analysis, 20 μL of each sample was precipitated with 200 μL of acetonitrile containing Glipizide (100 ng/mL) as an internal standard. This suspension was vortexed for 1 min and centrifuged at 4,000 rpm for 10 min, after which 80 μL of the extract was aliquoted for LC-MS/MS analysis. LC-MS/MS analysis was conducted on a Shimadzu Nexera UHPLC system coupled with a Sciex 6500 TQ-S triple quadrupole mass spectrometer (MS/MS) operated at the positive mode (ESI+). […] The injection volume was 2 μL. The LC mobile phase A was 0.025% formic acid-water containing 1 mM ammonium acetate and B was 100% methanol containing 5 mM ammonium acetate. The gradient (% B) was 2% (0-0.4 min), 2-65% ([…]), 65-90% (0.7 to 1.3 min), 90% (1.3-1.9 min), 90-2% (1.9 to 1.91 min), 2% (1.91-2.5 min). The flow rate was 0.6 mL/min. The column temperature was 60° C.
smiles,measurement,setting,value
"Cc1c(N2CCC3(CC2)CO[C@@H](C)[C@H]3N)nc(C)n(-c2cccc(Cl)c2Cl)c1=O (atropisomer, axis not shown; (Ra)) [Formula (10b), 6-((3S,4S)-4-amino-3-methyl-2-oxa-8-azaspiro[4.5]decan-8-yl)-3-(Ra)-(2,3-dichlorophenyl)-2,5-dimethylpyrimidin-4(3H)-one]",Mean tumor regression,"[1]; Day 29, Formula (10b) 100 mg/kg QD PO, n = 10, FIG. 1A",14%
same,Number of regressions,"[1]; Day 29, Formula (10b) 100 mg/kg QD, n = 10",8/10
same,Day 21 TGI,[1]; Formula (10b) 50 mg/kg QD PO,46%
same,Day 21 TGI,"[1]; Formula (10b) 50 mg/kg QD PO, listed as formula (10b)",46%
same,Day 21 TGI,[1]; Formula (10b) 100 mg/kg QD PO,89%
same,Day 21 TGI,"[1]; Formula (10b) 100 mg/kg QD PO, listed as formula (10b)",89%
same,effect on growth of NCI-H358 tumors (in words),[1]; formula (10b) monotherapy at 100 mg/kg QD,approximately tumor stasis
same,Mean Tumor Volume (±SEM),[2]; Formula (10b) 100 mg/kg QD PO day 1-21,590 (±48) mm^3
same,TGI,[2],58%
same,TGI,[2]; listed as formula (10b),58%
same,Mean body weight change,[3]; Formula (10b) 100 mg/kg QD,−6.5%
same,Mouse loss and observations,"[3]; Formula (10b) 50 mg/kg QD, each event = one mouse, BWL = body weight loss",Day 3 (BWL); also recorded: Day 12 (BWL); also recorded: Day 19 (BWL)
same,Mouse loss and observations,"[3]; Formula (10b) 100 mg/kg QD, each event = one mouse",Day 18 (Found dead); also recorded: Day 21 (Found dead)
same,body weight loss,"[4]; formula (10b) 100 mg/kg QD monotherapy, several mice, group placed on diet gel day 11-21",over 10%
same,Mean Tumor Volume (±SEM),[5]; Formula (10b) 100 mg/kg QD PO day 1-28,138 (±17) mm^3
same,Mean Tumor REG,[5],14%
same,Mean Tumor REG,[5]; listed as formula (10b),14%
same,Formula (10b) Plasma concentration,"[6]; 8 hours after final dose of formula (10b), Formula (10b) 50 mg/kg QD, mean ± SD, N = 4",4.44 ± 1.05 µM
same,Formula (10b) Plasma concentration,"[6]; 8 hours after final dose of formula (10b), Formula (10b) 100 mg/kg QD, mean ± SD, N = 4",7.54 ± 1.60 µM
same,Compound A Plasma concentration,"[6]; Formula (10b) 50 mg/kg QD alone, BQL = below quantitation limit (3 nM)",BQL
same,Compound A Plasma concentration,"[6]; Formula (10b) 100 mg/kg QD alone, BQL = below quantitation limit (3 nM)",BQL
same,concentration at 8 h,"[6]; 50 mg/kg, 8 hours after final dose of formula (10b), Formula (10b) 50 mg/kg QD, mean ± SD, N = 4",4.4 µM
same,concentration at 8 h,"[6]; 100 mg/kg, 8 hours after final dose of formula (10b), Formula (10b) 100 mg/kg QD, mean ± SD, N = 4",7.5 µM
"C=CC(=O)N1CCN(c2nc(=O)n(-c3c(C)ccnc3C(C)C)c3nc(-c4c(O)cccc4F)c(F)cc23)[C@@H](C)C1 [Compound A, 6-fluoro-7-(2-fluoro-6-hydroxyphenyl)-1-[4-methyl-2-(propan-2-yl)pyridin-3-yl]-4-[(2S)-2-methyl-4-(prop-2-enoyl)piperazin-1-yl]pyrido[2,3-d]pyrimidin-2(1H)-one, reference compound]",Mouse loss and observations,[3]; Compound A 30 mg/kg QD,None
same,Mouse loss and observations,"[3]; Compound A 100 mg/kg QD, dosing day of removal",None
same,Mean body weight change,[3]; Compound A 10 mg/kg QD,−0.3%
same,Compound A Plasma concentration,"[6]; 2 hours after final dose of Compound A, Compound A 30 mg/kg QD, mean ± SD, N = 4, 30 mg/kg",2.02 ± 0.31 µM
same,Compound A Plasma concentration,"[6]; 2 hours after final dose of Compound A, Compound A 100 mg/kg QD, mean ± SD, N = 4, 100 mg/kg",8.77 ± 7.25 µM
same,Formula (10b) Plasma concentration,"[6]; Compound A 30 mg/kg QD alone, BQL = below quantitation limit (3 nM)",BQL
same,Formula (10b) Plasma concentration,"[6]; Compound A 100 mg/kg QD alone, BQL = below quantitation limit (3 nM)",BQL
same,concentration at 2 h,"[6]; 30 mg/kg, 2 hours after final dose of Compound A, Compound A 30 mg/kg QD, mean ± SD, N = 4",2 µM
same,concentration at 2 h,"[6]; 100 mg/kg, 2 hours after final dose of Compound A, Compound A 100 mg/kg QD, mean ± SD, N = 4",8.8 µM
"C=CC(=O)N1CCN(c2nc(=O)n(-c3c(C)ccnc3C(C)C)c3nc(-c4c(O)cccc4F)c(F)cc23)[C@@H](C)C1 [Sotorasib, reference compound]",tolerability / impact on body weights,"[4]; sotorasib 100 mg/kg QD monotherapy, FIG. 3B",well tolerated
